Converted amounts (≈) assume the structure as drawn. Like-named read-outs stand apart in the source and are kept apart here.
Experiments:
[1] = cited from earlier work; for water solubility: atazenavir: as a free base
[2] = free base; preclinical animal models; cited from earlier work
[3] = In vitro dissolution rate of the AZI (2015 Chinese pharmacopoeia, deionized water, 37° C., UV 482 nm); format: physicochemical; settings: at 120 min, 100 rpm
Experimental: The original AZI powder was dissolved in anhydrous ethanol to form a solution with a concentration of 2 mg/ml under ultrasonic dispersion at room temperature. Subsequently, hydrochloric acid (0.1 M) was added into the AZI solution to form a series of AZI solution with different concentrations (16, 32, 48, 64, 80, 96 μg/ml). Then, 5 ml of each AZI sample and 5 ml of sulfuric acid (73.5%) were added into a test tube and mixed, after that the resultant mixture was kept for reaction for 30 min at the room temperature. Finally, UV absorption was measured at a wavelength of 482 nm to determine the concentration of the AZI solution, and a standard AZI curve can be plotted.
The dissolution rate was determined according to the method of 2015 Chinese pharmacopoeia (XC II). Firstly, 2 mg of AZI was placed in 100 ml of deionized water, and stirred at 100 rpm and 37° C. […]
Then, 2 ml sulfuric acid (73.5%) and 2 ml of the resultant filtrate were added to a test tube to form a mixture, and the mixture was kept for 30 min. Finally, UV absorption was measured at a wavelength of 482 nm to determine the AZI concentration. The dissolution rate of AZI was calculated using Eq. 2: Dissolution rate (%)=(Cn×V2+C1×V1+C2×V1+ . . . +Cn-1×V1)×100%/m (2) […]

**Q.** What does the source list for `COC(=O)N[C@H](C(=O)N[C@@H](Cc1ccccc1)[C@@H](O)CN(Cc1ccc(-c2ccccn2)cc1)NC(=O)[C@@H](NC(=O)OC)C(C)(C)C)C(C)(C)C` [atazenavir]?
**A.** water solubility [1]: < 1 µg/mL; oral bioavailability [2]: poor oral bioavailability

**Q.** With `CC(C(=O)O)c1ccc2c(c1)[nH]c1ccc(Cl)cc12` (stereo not drawn) [carprofen] as the molecule, how does the solubility in water [1] read?
**A.** 3.79 µg/mL (≈ 13.8 µM)

**Q.** And the solubility in water ([1]; value in brackets)?
**A.** 3.79 µg/mL (≈ 13.8 µM)

**Q.** Which “dissolution rate of AZI” value [3] does the source give for `CC[C@H]1OC(=O)[C@H](C)[C@@H](O[C@H]2C[C@@](C)(OC)[C@@H](O)[C@H](C)O2)[C@H](C)[C@@H](O[C@@H]2O[C@H](C)C[C@H](N(C)C)[C@H]2O)[C@](C)(O)C[C@@H](C)CN(C)[C@H](C)[C@@H](O)[C@]1(C)O` [original AZI, Azithromycin] here?
**A.** 1.31%

**Q.** Which water solubility [1] does the source give for `CCOc1cc(CC(=O)N[C@@H](CC(C)C)c2ccccc2N2CCCCC2)ccc1C(=O)O` [repaglinide] here?
**A.** 37 µg/mL (≈ 81.8 µM)
